From ChEMBL document CHEMBL3217548, “Biological activity and DNA binding studies of 2-substituted benzimidazo[1,2-a]quinolines bearing different amino side chains” (Medchemcomm, 2013)
Calls of active or inactive are those of the source. No cut-off for these calls is given here.

Experiments:
Calf thymus DNA [1] = test: Binding affinity to calf thymus DNA assessed as bathochromic shift at 20 uM by UV/visible spectrophotometry; type: nucleic-acid assay; conditions: Bos taurus
Calf thymus DNA [2] = test: Binding affinity to calf thymus DNA assessed as hypochromic shift at 20 uM by UV/visible spectrophotometry; type: nucleic-acid assay; conditions: Bos taurus
[3] = Binding affinity to DNA (unknown origin) at 1 to 5 uM after 15 mins by DNA footprinting assay
Homo sapiens = species on record: Homo sapiens; test: Inhibition of human DNA topoisomerase 2 assessed as inhibition of DNA cleavage
[4] = molecular target: T1, DNA topoisomerase 1 (Homo sapiens) (UniProt P11387); test: Inhibition of human DNA topoisomerase 1 assessed as inhibition of DNA cleavage
T1 sequence (whole entry): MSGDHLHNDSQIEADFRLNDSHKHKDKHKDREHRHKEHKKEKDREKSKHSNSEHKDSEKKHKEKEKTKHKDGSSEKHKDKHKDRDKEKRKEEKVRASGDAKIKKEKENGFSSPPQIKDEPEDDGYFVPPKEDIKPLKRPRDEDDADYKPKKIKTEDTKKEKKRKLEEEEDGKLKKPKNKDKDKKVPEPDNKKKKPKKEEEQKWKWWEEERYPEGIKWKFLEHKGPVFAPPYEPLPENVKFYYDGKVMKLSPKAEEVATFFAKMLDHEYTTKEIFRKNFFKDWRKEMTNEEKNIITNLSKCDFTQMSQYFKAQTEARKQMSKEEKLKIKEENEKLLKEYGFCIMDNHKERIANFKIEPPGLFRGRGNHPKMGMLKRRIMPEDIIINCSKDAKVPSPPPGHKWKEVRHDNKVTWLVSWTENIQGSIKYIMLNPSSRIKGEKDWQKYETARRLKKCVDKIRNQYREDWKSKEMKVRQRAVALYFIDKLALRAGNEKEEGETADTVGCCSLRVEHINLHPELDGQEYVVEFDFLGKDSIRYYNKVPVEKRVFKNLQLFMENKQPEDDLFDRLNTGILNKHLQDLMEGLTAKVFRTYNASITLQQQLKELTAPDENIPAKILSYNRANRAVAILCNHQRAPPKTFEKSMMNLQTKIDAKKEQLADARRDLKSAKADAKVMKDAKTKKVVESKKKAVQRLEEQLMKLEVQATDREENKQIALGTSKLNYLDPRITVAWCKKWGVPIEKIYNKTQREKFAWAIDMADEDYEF

Escherichia coli [5] = test: Binding affinity to Escherichia coli pUC19 plasmid assessed as nicked DNA at 0.1 to 5 uM by ethidium bromide staining-based agarose gel electrophoresis
Escherichia coli [6] = test: Binding affinity to Escherichia coli pUC19 plasmid assessed as induction of topoisomerase1-mediated DNA relaxation at 2 uM incubated for 45 mins prior to topoisomerase1 addition by agarose gel electrophoresis
Calf thymus DNA [7] = test: Binding affinity to calf thymus DNA assessed as DNA intercalation at 1 to 50 uM by circular dichroism analysis; type: nucleic-acid assay; conditions: Bos taurus
Calf thymus DNA [8] = test: Binding affinity to calf thymus DNA assessed as change in melting temperature at 0.5 drug/DNA ratio by spectrophotometry; type: nucleic-acid assay; conditions: Bos taurus
[9] = Drug uptake in human H460 cell perinuclear region at 10 uM after 2 hrs by fluorescence microscopy; type: ADME, cell-based; conditions: h460, 2 h
[10] = Drug uptake in human H460 cell cytoplasm at 10 uM after 2 hrs by fluorescence microscopy; type: ADME, cell-based; conditions: h460, 2 h
HCT-116 [11] = test: Cell cycle arrest in human HCT116 cells assessed as accumulation at G2/M phase at 5 uM after 48 hrs by propidium iodide staining-based FACS analysis (reference value: 31 +/- 0.1 %); type: functional
HCT-116 [12] = test: Cell cycle arrest in human HCT116 cells assessed as accumulation at G2/M phase at 0.5 uM after 48 hrs by propidium iodide staining-based FACS analysis (reference value: 31 +/- 0.1 %); type: functional
HCT-116 [13] = test: Cell cycle arrest in human HCT116 cells assessed as accumulation at G2/M phase at 5 uM after 24 hrs by propidium iodide staining-based FACS analysis (reference value: 28 +/- 1 %); type: functional
HCT-116 [14] = test: Cell cycle arrest in human HCT116 cells assessed as accumulation at G2/M phase at 0.5 uM after 24 hrs by propidium iodide staining-based FACS analysis (reference value: 28 +/- 1 %); type: functional
HCT-116 [15] = test: Cell cycle arrest in human HCT116 cells assessed as accumulation at S phase at 5 uM after 48 hrs by propidium iodide staining-based FACS analysis (reference value: 32 +/- 1 %); type: functional
HCT-116 [16] = test: Cell cycle arrest in human HCT116 cells assessed as accumulation at S phase at 0.5 uM after 48 hrs by propidium iodide staining-based FACS analysis (reference value: 32 +/- 1 %); type: functional
HCT-116 [17] = test: Cell cycle arrest in human HCT116 cells assessed as accumulation at S phase at 5 uM after 24 hrs by propidium iodide staining-based FACS analysis (reference value: 39 +/- 0.2 %); type: functional
HCT-116 [18] = test: Cell cycle arrest in human HCT116 cells assessed as accumulation at S phase at 0.5 uM after 24 hrs by propidium iodide staining-based FACS analysis (reference value: 39 +/- 0.2 %); type: functional
HCT-116 [19] = test: Cell cycle arrest in human HCT116 cells assessed as accumulation at G1 phase at 5 uM after 48 hrs by propidium iodide staining-based FACS analysis (reference value: 37 +/- 2 %); type: functional
HCT-116 [20] = test: Cell cycle arrest in human HCT116 cells assessed as accumulation at G1 phase at 0.5 uM after 48 hrs by propidium iodide staining-based FACS analysis (reference value: 37 +/- 2 %); type: functional
HCT-116 [21] = test: Cell cycle arrest in human HCT116 cells assessed as accumulation at G1 phase at 5 uM after 24 hrs by propidium iodide staining-based FACS analysis (reference value: 33 +/- 1 %); type: functional
HCT-116 [22] = test: Cell cycle arrest in human HCT116 cells assessed as accumulation at G1 phase at 0.5 uM after 24 hrs by propidium iodide staining-based FACS analysis (reference value: 33 +/- 1 %); type: functional
HCT-116 [23] = test: Cell cycle arrest in human HCT116 cells assessed as accumulation at subG0/G1 phase at 5 uM after 48 hrs by propidium iodide staining-based FACS analysis (reference value: 4 +/- 1 %); type: functional
HCT-116 [24] = test: Cell cycle arrest in human HCT116 cells assessed as accumulation at subG0/G1 phase at 0.5 uM after 48 hrs by propidium iodide staining-based FACS analysis (reference value: 4 +/- 1 %); type: functional
HCT-116 [25] = test: Cell cycle arrest in human HCT116 cells assessed as accumulation at subG0/G1 phase at 5 uM after 24 hrs by propidium iodide staining-based FACS analysis (reference value: 4 +/- 1 %); type: functional
HCT-116 [26] = test: Cell cycle arrest in human HCT116 cells assessed as accumulation at subG0/G1 phase at 0.5 uM after 24 hrs by propidium iodide staining-based FACS analysis (reference value: 4 +/- 1 %); type: functional
MCF7 = test: Cytotoxicity against human MCF7 cells after 72 hrs by MTT assay; type: functional, cell-based; conditions: MCF7, 72 h
[27] = Cytotoxicity against human H460 cells after 72 hrs by MTT assay; type: functional, cell-based; conditions: NCI-H460, 72 h
HCT-116 [28] = test: Cytotoxicity against human HCT116 cells after 72 hrs by MTT assay; type: functional, cell-based; conditions: HCT-116, 72 h
DNA = test: Induction of DNA damage in plasmid DNA in E. coli S30 cell-free system assessed as inhibition of EGFP translation at 50 uM after 1 hr by fluorescence assay

C[N+]1(C)CCN(c2ccc3cc(C#N)c4nc5ccccc5n4c3c2)CC1.[I-]
Activity (Calf thymus DNA [1]): Active
Activity (Calf thymus DNA [2]): Active
Activity [3]: Active
Activity (Homo sapiens): inactive
Activity [4]: inactive
Activity (Escherichia coli [5]): Active
Activity (Escherichia coli [6]): Active
Activity (Calf thymus DNA [7]): Active
ΔTm (Calf thymus DNA [8]): 15.4 °C
Drug uptake [9]: Active
Drug uptake [10]: Active
Activity (HCT-116 [11]): 28%
Activity (HCT-116 [12]): 31%
Activity (HCT-116 [13]): 29%
Activity (HCT-116 [14]): 32%
Activity (HCT-116 [15]): 29%
Activity (HCT-116 [16]): 32%
Activity (HCT-116 [17]): 33%
Activity (HCT-116 [18]): 36%
Activity (HCT-116 [19]): 43%
Activity (HCT-116 [20]): 37%
Activity (HCT-116 [21]): 38%
Activity (HCT-116 [22]): 32%
Activity (HCT-116 [23]): 5%
Activity (HCT-116 [24]): 6%
Activity (HCT-116 [25]): 7%
Activity (HCT-116 [26]): 6%
IC50 (MCF7): 2.4 µM
IC50 [27]: 2 µM
IC50 (HCT-116 [28]): 0.6 µM
inhibition at 50 µM (DNA): 45%
